Experimental data reported in patent US20070082942A1, “Prevention of hiv-1 infection by inhibition of rho-mediated reorganization and/or content alteration of cell membrane raft” (priority 2003, published 2007).

Columns and labels:
[1] = test system: HIV-1 LTR-driven promoter; test: LTR-driven gene expression; conditions: for Reversal of lovastatin-induced increase in LTR-driven transcription: supplementation with lovastatin
Method: LTR-driven gene expression. Jurkat cells transfected with pLTR-luc (Schwartz, O. et al (1990) Gene 88:197-205), pcDNA-tat and the promoterless renilla luciferase plasmid were treated at 4 h post-transfection with inhibitors and metabolites at the indicated concentrations (see HIV-1. infections section). Relative luciferase units (RLU) were calculated as the ratio between firefly and renilla activity after 48 h.

[2] = test system: replication-defective NL4-3 virus pseudotyped with HIV-1ADA envelope; format: cell-based; conditions: for Entry of R5-pseudotyped virus: MT2-CCR5 cells treated with 10 μM compound, 48 h, FIG. 6A, 7B
Rho = Rho activation assay; format: cell-based; conditions: FIG. 8C
Method: Rho and Rac activation assay. […] At times indicated, cells were washed with ice-cold PBS and lysates prepared using Rho or Rac activation assay kits (Upstate Biotechnology). GTP-bound Rho was precipitated with RBD-agarose beads and GTP-Rac with PBD-agarose beads. Activated Rho or Rac were measured in pellets by Western blot with specific antibodies, using crude cell extracts for normalization. Densitometry was performed using NIH Image software.

[3] = test system: gp120 with the HIV-1 receptors CD4 and CXCR4; test: gp120-induced patching; conditions: for Restoration of patch size and gp120-CXCR4 co-localization in lovastatin-treated cells: addition to lovastatin-treated cells
[4] = test system: replication-defective NL4-3 virus pseudotyped with VSV envelope; format: cell-based, vesicular stomatitis virus
X4 (NL4-3) HIV-1 strain = test: HIV-1 infection of PHA-activated human PBMC, p24 antigen, X4 strain; format: cell-based
Method: (§1) Treated PBMC were incubated with NL4-3 or BaL viral stocks (1 or 10 ng p24 antigen/10^6 cells; 3 h, 37° C.). Cell-free supernatants were collected daily from cultured cells (0.5×10^6/ml) and tested for p24 antigen (Coulter).

R5 (BaL) HIV-1 strain = test: HIV-1 infection of PHA-activated human PBMC, p24 antigen, R5 strain; format: cell-based
Method: as §1

MT2-CCR5 cells = test: Cell cholesterol mass determination; conditions: lovastatin-treated MT2-CCR5 cells; FIG. 7C
HIV-1 = test: Lovastatin treatment of HIV-1-infected patients; format: in vivo, human; conditions: Table I
[5] = test system: X4-pseudotyped replication-defective HIV-1 NL4-3 variant; format: cell-based; conditions: 10 μM lovastatin; not shown
[6] = test system: HIV-1-pseudotyped virus produced by HEK 293T cells; format: cell-based
HIV-1 NL4-3 = test: Murine SCID-hu-PBMC model of HIV-1 infection; format: in vivo, CB.17 SCID/SCID mice
grafted human PBMC = conditions: mouse, in vivo
[7] = test system: VSV-G-pseudotyped virus produced by HEK 293T cells; format: cell-based, vesicular stomatitis virus
Gag = conditions: cells expressing the peptide
Luc-Ada viral particles = test: Production of Luc-Ada viral particles in cells expressing raft-targeted protease peptide; conditions: cells expressing the peptide; FIG. 8B as printed
[8] = lovastatin-treated PBMC, FIG. 8A

`CC(C)=CCC/C(C)=C/CC/C(C)=C/COP(=O)(O)OP(=O)(O)O` [FPP, famesylpyrophosphate] was tested. Which “Reversal of lovastatin-induced increase in LTR-driven transcription” value ([1]; MT2-CCR5 cells, FIG. 7D) did it give?
Its value is “not”.

And the “Reversal of lovastatin-induced inhibition of HIV-1 entry” value [2]?
The value was “not”.

What does the source list for `CC(C)=CCC/C(C)=C/CC/C(C)=C/CC/C(C)=C/COP(=O)(O)OP(=O)(O)O` [GGPP, geranylgeranylpyrophosphate]?
Reversal of lovastatin-induced increase in LTR-driven transcription ([1]; MT2-CCR5 cells, FIG. 7D): reversed; Reversal of lovastatin-induced inhibition of HIV-1 entry [2]: reversed; Reversal of lovastatin inhibition of HIV-1-induced Rho activation (Rho; co-incubation with lovastatin): reversed

Which results are given for `CC(C)CCC[C@@H](C)[C@H]1CC[C@H]2[C@@H]3CC=C4C[C@@H](O)CC[C@]4(C)[C@H]3CC[C@]12C` [cholesterol]?
Reversal of lovastatin-induced increase in LTR-driven transcription ([1]; MT2-CCR5 cells, FIG. 7D): not; Reversal of lovastatin-induced inhibition of HIV-1 entry [2]: not; Restoration of patch size and gp120-CXCR4 co-localization in lovastatin-treated cells ([3]; FIG. 8A): not

Which “Entry of R5-pseudotyped virus” value [2] does the source give for `COC(=O)[C@H](CCSC)NC(=O)c1ccc(NC[C@@H](N)CS)cc1-c1ccccc1` [farnesyl transferase inhibitor] here?
Its value is “not”.

And the “Entry of VSV-pseudotyped virus” value [4]?
The value was “did not affect”.

`COC(=O)[C@H](CC(C)C)NC(=O)c1ccc(NC[C@@H](N)CS)cc1-c1ccccc1` [geranylgeranyl transferase inhibitor] was tested. Which “HIV transcription (LTR-driven)” value ([1]; MT2-CCR5 cells, FIG. 7D) did it give?
Its value is “increased”.

What about the “Entry of R5-pseudotyped virus” value [2] of the same compound?
Its value is “inhibited”.

What about the “Entry of VSV-pseudotyped virus” value [4] of the same compound?
The value was “did not affect”.

Which “HIV-1 replication (p24 antigen production)” value (X4 (NL4-3) HIV-1 strain; PBMC pretreated 48 h with 10 μM lovastatin, X4 (NL4-3)-infected cultures, FIG. 5A) does the source give for `CC[C@H](C)C(=O)O[C@H]1C[C@@H](C)C=C2C=C[C@H](C)[C@H](CC[C@@H]3C[C@@H](O)CC(=O)O3)[C@H]21` [lovastatin] here?
Its value is “reduced p24 antigen production”.

What about the “HIV-1 replication (p24 antigen production)” value (R5 (BaL) HIV-1 strain; PBMC pretreated 48 h with 10 μM lovastatin, R5 (BaL)-infected cultures, FIG. 5A) of the same compound?
Its value is “reduced p24 antigen production”.

What about the Cholesteryl ester mass (MT2-CCR5 cells) of the same compound?
The Cholesteryl ester mass was “drastically reduced”.

And the “Free cholesterol levels vs untreated cells” value (MT2-CCR5 cells)?
Its value is “comparable”.

What about the “HIV-1 LTR-driven promoter activity” value ([1]; Jurkat cells, FIG. 6C) of the same compound?
The value was “increased”.

And the “Serum viral RNA loads” value (HIV-1; six A1 stage non-HAART patients, 40 mg/day oral, one month, sole therapy)?
Its value is “clear reduction”.

And the “Viral load after discontinuation of treatment” value (HIV-1; three months after termination of treatment)?
The value was “rebound”.

And the “Entry of X4-pseudotyped virus” value [5]?
Its value is “inhibited entry”.

What about the HIV-1-pseudotyped viral production [6] of the same compound?
The HIV-1-pseudotyped viral production was “reduced”.

And the “Virus rescue by co-culture of peritoneal cells with PHA-activated human PBMC” value (HIV-1 NL4-3; cells from two mice with undetectable viral RNA)?
The value was “did not rescue virus”.

And the “Mice with undetectable viral RNA in plasma” value (HIV-1 NL4-3; lovastatin i.p. 5 mg/kg every three days)?
The value was 4 of 10.

And the “Mean viral load (plasma HIV-1 RNA)” value (HIV-1 NL4-3; lovastatin i.p. 5 mg/kg every three days, one week post-infection, vs vehicle, FIG. 5C)?
Its value is “significantly reduced”.

What about the “CD4+ T cell counts vs controls” value (HIV-1 NL4-3; one week post-infection) of the same compound?
The value was “higher”.

And the “Entry of R5-pseudotyped virus” value [2]?
The value was “inhibited entry”.

And the “gp120 binding to CD4” value ([3]; lovastatin-treated PBMC)?
The value was “did not affect”.

And the “Co-localization between gp120 and CXCR4” value [3, 8]?
The value was “drastically reduced”.

And the “gp120 patch size vs untreated cells” value [3, 8]?
Its value is “smaller gp120 patches”.

And the “Number of labeled cells or labeling intensity” value (grafted human PBMC)?
The value was “No difference”.

What about the VSV-G-pseudotyped viral production [7] of the same compound?
Its VSV-G-pseudotyped viral production is “not that of VSV-G-pseudotyped viruses”.

What about the “HIV-1-induced Rho activation” value (Rho; MT2-CCR5 cells incubated with lovastatin prior to virus exposure) of the same compound?
The value was “inhibited”.

L-mevalonate was tested. Which “Reversal of lovastatin effect on p24 production” value (X4 (NL4-3) HIV-1 strain; co-incubation with lovastatin, X4-infected cultures) did it give?
The value was “reversed”.

What about the “Reversal of lovastatin effect on p24 production” value (R5 (BaL) HIV-1 strain; co-incubation with lovastatin, R5-infected cultures) of the same compound?
The value was “reversed”.

And the “Reversal of lovastatin-induced increase in LTR-driven promoter activity” value ([1]; Jurkat cells, co-incubation with lovastatin, FIG. 6C)?
The value was “reversed”.

What about the “Reversal of lovastatin-induced reduction of viral production” value ([6]; co-incubation with lovastatin, FIG. 6B) of the same compound?
The value was “reversed”.

And the “Reversal of lovastatin-induced inhibition of HIV-1 entry” value [2]?
Its value is “reversed”.

What about the “Restoration of patch size and gp120-CXCR4 co-localization in lovastatin-treated cells” value ([3]; FIG. 8A) of the same compound?
The value was “restored”.

What does the source list for MGCGCSSHPEDDISYEL [SEQ. ID. NO: 21]?
Gag processing (Gag): severely attenuated; Production of Luc-Ada viral particles (Luc-Ada viral particles): severely diminished
